Measurements taken from patent publication EP1173432B9, “PIPERIDINE-INDOLE COMPOUNDS HAVING 5-HT6 AFFINITY” (NPS Allelix Corp., priority 1999, dated 2000).
Where a name gives a salt, the structure may show the parent alone.

How the values were obtained:
5-HT7 receptors = 5-HT7 receptors (Homo sapiens, UniProt P34969); assay: Binding selectivity for 5-HT6 relative to the 5-HT7 receptor; conditions: selectivity 5-HT6 over 5-HT7
human 5-HT6 receptor = molecular target: T1, human 5-HT6 receptor (Homo sapiens, UniProt P50406); assay: Binding affinity for the 5-HT6 receptor (3H-LSD displacement, membranes of recombinant cells); conditions: 3H-LSD radioligand, 60 minute incubation at 37 °C
T1 construct: expressed in transfected cells; host or cells: recombinant cells
T1 sequence (P50406 whole entry): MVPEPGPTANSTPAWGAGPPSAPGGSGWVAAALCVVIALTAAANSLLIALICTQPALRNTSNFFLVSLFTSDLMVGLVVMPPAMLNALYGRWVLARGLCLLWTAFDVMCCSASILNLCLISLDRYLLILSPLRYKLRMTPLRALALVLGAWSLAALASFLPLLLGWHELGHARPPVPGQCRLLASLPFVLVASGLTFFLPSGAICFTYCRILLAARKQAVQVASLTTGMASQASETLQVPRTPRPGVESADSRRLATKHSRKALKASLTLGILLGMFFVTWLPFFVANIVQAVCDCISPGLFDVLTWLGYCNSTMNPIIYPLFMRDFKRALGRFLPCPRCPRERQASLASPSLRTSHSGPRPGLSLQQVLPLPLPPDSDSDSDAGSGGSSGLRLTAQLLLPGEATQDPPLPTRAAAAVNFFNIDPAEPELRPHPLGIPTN
Procedure: All of the compounds of the invention were evaluated using cell types receptive specifically to the 5-HT6 receptor (for cloning and characterization of the human 5-HT6 receptor see Kohen, et al. J. Neurochemistry, 66, 1996: 47-56). […] After a 60 minute incubation at 37 °C, the incubation was terminated by vacuum filtration. The filters were washed with buffer and the filters were counted for radioactivity using liquid scintillation spectrometry. The affinity of the test compound for the 5-HT6 receptor was determined by computer-assisted analysis of the data and determining the amount of the compound necessary to inhibit 50% of the binding of the radioligand to the receptor. Concentrations ranging from 10^-11 M to 10^-5 M of the test compound were evaluated.

human 5-HT2C = molecular target: T2, human 5-HT2C (Homo sapiens, UniProt P28335); assay: Binding selectivity for 5-HT6 relative to the 5-HT2C receptor; conditions: selectivity 5-HT6 over 5-HT2C
T2 sequence (P28335 33-458): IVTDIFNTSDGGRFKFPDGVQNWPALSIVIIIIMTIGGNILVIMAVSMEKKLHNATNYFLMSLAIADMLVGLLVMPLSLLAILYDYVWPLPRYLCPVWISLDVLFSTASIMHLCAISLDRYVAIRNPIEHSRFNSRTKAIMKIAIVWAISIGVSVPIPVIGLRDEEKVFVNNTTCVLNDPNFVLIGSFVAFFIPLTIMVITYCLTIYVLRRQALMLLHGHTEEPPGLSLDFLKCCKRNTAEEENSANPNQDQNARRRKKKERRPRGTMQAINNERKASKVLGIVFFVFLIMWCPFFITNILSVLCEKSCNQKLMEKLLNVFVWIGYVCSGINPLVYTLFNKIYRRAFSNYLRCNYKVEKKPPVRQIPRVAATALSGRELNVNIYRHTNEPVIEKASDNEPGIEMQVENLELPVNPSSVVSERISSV

5-HT7 receptors, sequence (P34969 whole entry): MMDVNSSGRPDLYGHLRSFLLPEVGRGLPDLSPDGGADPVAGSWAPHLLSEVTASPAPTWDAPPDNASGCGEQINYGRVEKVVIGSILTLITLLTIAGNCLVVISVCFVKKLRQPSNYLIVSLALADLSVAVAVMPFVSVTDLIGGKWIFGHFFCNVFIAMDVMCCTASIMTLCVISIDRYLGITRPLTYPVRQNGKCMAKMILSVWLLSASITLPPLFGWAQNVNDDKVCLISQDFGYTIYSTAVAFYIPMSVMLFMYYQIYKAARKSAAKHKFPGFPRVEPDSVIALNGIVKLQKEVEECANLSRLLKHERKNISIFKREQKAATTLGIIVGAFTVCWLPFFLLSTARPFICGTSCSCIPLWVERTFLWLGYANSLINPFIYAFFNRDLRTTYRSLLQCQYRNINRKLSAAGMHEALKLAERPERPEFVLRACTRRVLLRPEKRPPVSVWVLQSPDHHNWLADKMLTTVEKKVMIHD

Structure (SMILES)	fold greater affinity for the human 5-HT6 receptor relative to the human 5-HT7 receptor (5-HT7 receptors) [fold]	Ki (human 5-HT6 receptor) [nM]	fold greater affinity for the human 5-HT6 receptor relative to the human 5-HT2C receptor (human 5-HT2C) [fold]
Cc1ccc(S(=O)(=O)n2cc(C3=CCN(C)CC3)c3cc(F)ccc32)cc1 [Example 3b, 5-Fluoro-1-(4-methylphenylsulfonyl)-3-(1-methyl-1,2,3,6-tetrahydro-4-pyridinyl)indole]	≥ 60	≤ 5	≥ 60
CN1CC=C(c2cn(S(=O)(=O)c3ccccc3)c3ccccc23)CC1 [Example 4a, 3-(1-Methyl-1,2,3,6-tetrahydro-4-pyridinyl)-1-phenylsulfonylindole]	–	≤ 5	–
CN1CC=C(c2cn(S(=O)(=O)c3cccc4ccccc34)c3c(F)cc(F)cc23)CC1 [Example 4aaa, 5,7-Difluoro-3-(1-methyl-1,2,3,6-tetrahydro-4-pyridinyl)-1-(1-naphthylsulfonyl)indole]	–	≤ 5	–
COc1ccc(S(=O)(=O)n2cc(C3=CCN(C)CC3)c3ccccc32)cc1 [Example 4b, 1-(4-Methoxyphenylsulfonyl)-3-(1-methyl-1,2,3,6-tetrahydro-4-pyridinyl)indole]	–	≤ 50	–
CN1CC=C(c2cn(S(=O)(=O)c3ccc(Cl)cc3)c3ccc(F)cc23)CC1 [Example 4bb, 1-(4-Chlorophenylsulfonyl)-5-fluoro-3-(1-methyl-1,2,3,6-tetrahydro-4-pyridinyl)indole]	≥ 60	≤ 5	≥ 60
CN1CC=C(c2cn(S(=O)(=O)c3ccc(F)cc3)c3ccccc23)CC1 [Example 4c, 1-(4-Fluorophenylsulfonyl)-3-(1-methyl-1,2,3,6-tetrahydro-4-pyridinyl)indole]	–	≤ 5	–
CN1CC=C(c2cn(S(=O)(=O)c3ccc(Br)cc3)c3ccc(F)cc23)CC1 [Example 4d, 1-(4-Bromophenylsulfonyl)-5-fluoro-3-(1-methyl-1,2,3,6-tetrahydro-4-pyridinyl)indole]	–	≤ 50	–
CN1CC=C(c2cn(S(=O)(=O)c3cc(Cl)ccc3Cl)c3ccc(F)cc23)CC1 [Example 4e, 5-Fluoro-1-(2,5-dichlorophenylsulfonyl)-3-(1-methyl-1,2,3,6-tetrahydro-4-pyridinyl)indole]	–	≤ 50	–
CN1CC=C(c2cn(S(=O)(=O)c3cccc4ccccc34)c3ccc(F)cc23)CC1 [Example 4ee, 5-Fluoro-3-(1-methyl-1,2,3,6-tetrahydro-4-pyridinyl)-1-(1-naphthylsulfonyl)indole]	–	≤ 5	–
CN1CC=C(c2cn(S(=O)(=O)c3ccc(Cl)c([N+](=O)[O-])c3)c3ccc(F)cc23)CC1 [Example 4f, 1-(4-Chloro-3-nitrophenylsulfonyl)-5-fluoro-3-(1-methyl-1,2,3,6-tetrahydro-4-pyridinyl)indole]	–	≤ 50	–
CN1CC=C(c2cn(S(=O)(=O)c3ccc4ccccc4c3)c3ccc(F)cc23)CC1 [Example 4ff, 5-Fluoro-3-(1-methyl-1,2,3,6-tetrahydro-4-pyridinyl)-1-(2-naphthylsulfonyl)indole]	≥ 60	–	≥ 60
Cc1cc(C)c(S(=O)(=O)n2cc(C3=CCN(C)CC3)c3cc(F)ccc32)c(C)c1 [Example 4g, 5-Fluoro-3-(1-methyl-1,2,3,6-tetrahydro-4-pyridinyl)-1-(2,4,6-trimethylphenylsulfonyl)indole]	–	≤ 50	–
CN1CC=C(c2cn(S(=O)(=O)c3ccc(F)cc3)c3ccc(Cl)cc23)CC1 [Example 4gg, 5-Chloro-1-(4-fluorophenylsulfonyl)-3-(1-methyl-1,2,3,6-tetrahydro-4-pyridinyl)indole]	–	≤ 5	–
Cc1ccc(S(=O)(=O)n2cc(C3=CCN(C)CC3)c3cc(OC4CCCCC4)ccc32)cc1 [Example 4i, 5-Cyclohexyloxy-1-(4-methylphenylsulfonyl)-3-(1-methyl-1,2,3,6-tetrahydro-4-pyridinyl)indole]	≥ 60	≤ 50	≥ 60
CN1CC=C(c2cn(S(=O)(=O)c3ccc(Cl)cc3)c3ccc(OC(F)(F)F)cc23)CC1 [Example 4jj, 1-(4-Chlorophenylsulfonyl)-3-(1-methyl-1,2,3,6-tetrahydro-4-pyridinyl)-5-trifluoromethoxyindole]	–	≤ 5	–
CN1CC=C(c2cn(S(=O)(=O)c3ccc(F)cc3)c3cc(Br)ccc23)CC1 [Example 4k, 6-Bromo-1-(4-fluorophenylsulfonyl)-3-(1-methyl-1,2,3,6-tetrahydro-4-pyridinyl)-indole]	–	≤ 50	–
Cc1ccc(S(=O)(=O)n2cc(C3=CCN(C)CC3)c3cc(OC(F)(F)F)ccc32)cc1 [Example 4kk, 1-(4-Methylphenylsulfonyl)-3-(1-methyl-1,2,3,6-tetrahydro-4-pyridinyl)-5-trifluoromethoxyindole]	–	≤ 5	–
Cc1ccc(S(=O)(=O)n2cc(C3=CCN(C)CC3)c3cc(C(F)(F)F)ccc32)cc1 [Example 4qq, 1-(4-Methylphenylsulfonyl)-3-(1-methyl-1,2,3,6-tetrahydro-4-pyridinyl)-5-trifluoromethylindole hydrochloride]	–	≤ 50	–
Cc1ccc(S(=O)(=O)n2cc(C3=CCN(C)CC3)c3cc(F)cc(F)c32)cc1 [Example 4ww, 5,7-Difluoro-3-(1-methyl-1,2,3,6-tetrahydro-4-pyridinyl)-1-(4-methylphenylsulfonyl)indole]	–	≤ 5	–
CN1CC=C(c2cn(S(=O)(=O)c3ccccc3Br)c3ccc(F)cc23)CC1 [Example 4z, 1-(2-Bromophenylsulfonyl)-5-fluoro-3-(1-methyl-1,2.3,6-tetrahydro-4-pyridinyl)indole]	≥ 60	≤ 5	≥ 60
CN1CC=C(c2cn(S(=O)(=O)c3ccc(Cl)cc3)c3c(F)cc(F)cc23)CC1 [Example 4zz, 1-(4-Chlorophenylsulfonyl)-5,7-difluoro-3-(1-methyl-1,2,3,6-tetrahydro-4-pyridinyl)indole]	–	≤ 5	–
